Laboratory results reported in patent publication US12715891B2, “Iron complexes and salts thereof as contrast agents for MRI” (BRACCO IMAGING S.P.A., priority 2020, dated 2026).

Columns and labels:
[1] = Fixed-field relaxometric measurements in human serum and in water; type: physicochemical; conditions: for r1p / r2p: 1 T, 37° C.
Description: Fixed-field relaxometric measurements were performed using the [Fe(DFX)2Meg3] complex obtained as per Example 1, comparing it with two prior art complexes, Gd-DTPA and Fe-DTPA.

[2] = test system: mice inoculated with tumour cells (ISA); experiment: In vivo MRI contrast enhancement (En %); conditions: 0.1 mmol/Kg
Description: The increase in contrast (En %) generated by the administration of the complex according to the present invention Fe(DFX)2, obtained as per Example 1 (0.1 mmol/Kg), was measured and compared with the one induced by the Gd-DTPA complex (known by the trade name of Magnevist) at the same dose and under the same experimental conditions. The measurements were performed (in vivo), under a fixed magnetic field of 3T and 7T, in mice inoculated with tumour cells (ISA). The images were acquired when the size of the subcutaneous tumour had reached about 1-2 cm (i.e. about 15-20 days after inoculation).

With `CNC[C@H](O)[C@@H](O)[C@H](O)[C@H](O)CO.CNC[C@H](O)[C@@H](O)[C@H](O)[C@H](O)CO.O=C([O-])CN(CCN(CC(=O)[O-])CC(=O)O)CCN(CC(=O)[O-])CC(=O)O.[Gd+3]` [Gd-DTPA, gadopentetic acid] the r1p ([1]; Human serum) was 4.1 (1 T, 37° C.), the r2p ([1]; Human serum) was 4.8 (1 T, 37° C.) and the “relaxivity in human serum” value ([1]; human serum, 37° C. and 1T) was 3.4 mM⁻¹ s⁻¹. The r1p ([1]; water) was 3.4 (1 T, 37° C.), the r2p ([1]; water) was 3.9 (1 T, 37° C.) and the “renal excretion (kidneys and bladder contrast) compared with Fe(DFX)2” value [2] was “more rapid renal excretion”.
